For one assay, the system named is NMDA receptors. Briefly: Cortical slice studies: antagonism of responses to NMDA in rat cortical slice. Format: cell-based. The conditions noted are these: from righthand shift in the NMDA concentration-response curve, read-out: apparent equilibrium constant (Kb). The method, then: The compounds useful in this invention potently and selectively block responses to NMDA in a brain slice from rat cortex, inhibit glycine binding to the strychnine-insensitive site present on the NMDA receptor, and block the potentiation of NMDA responses by glycine in cultured cortical neurones.
The effects of compounds of the invention on responses to NMDA were assessed using the rat cortical slice as described by Wong et al., Proc. Natl. Acad. Sci. USA, 1986, 83, 7104. The apparent equilibrium constant (Kb) was calculated from the righthand shift in the NMDA concentration-response curve produced by the compound under test.

In another assay the test system is NMDA-induced excitation. The conditions noted are these: Evans et al., Brain Research, 1978, 148, 536-542; cited from earlier work.

These results are taken from US4925867A, “Hydrocarbon substituted pyrrolidinones, intermediates therefor, and anti-convulsant use thereof” (Merck Sharp & Dohme Ltd., priority 1988, dated 1990).

`C[C@H]1CN(O)C(=O)[C@H]1N` (relative stereo) [Example 1, cis-3-Amino-1-hydroxy-4-methylpyrrolidin-2-one]: in the assay with NMDA receptors, the antagonist equilibrium constant (Kb) is under 100 µM. As to `C[C@@H]1CN(O)C(=O)[C@@H]1N` [Example 2, (3R,4R)-3-Amino-1-hydroxy-4-methylpyrrolidin-2-one], the Kb in the assay with NMDA receptors was under 100 µM. On to `NC1CCN(O)C1=O` (stereo not drawn) [HA-966, 3-amino-1-hydroxypyrrolidin-2-one], for which, in the assay with NMDA-induced excitation, the “antagonism of NMDA-induced excitation (in words)” value is “able to antagonise selectively NMDA-induced excitation”.

For orientation: Kb means the equilibrium dissociation constant of an antagonist, usually derived from a functional assay.
